{
  "source": "patent US10119124B2",
  "about": "(priority 2007, dated 2018)",
  "key": {"[1]": {"tested_on": "M2 mutants and wild-type WSN-UdM viruses", "type": "cell-based, influenza A virus"}, "[2]": {"tested_on": "M2 mutants and wild-type WSN-UdM viruses", "conditions": "cited from earlier work"}},
  "data": [
    {"smiles": "NC12CC3CC(CC(C3)C1)C2", "note": "[amantadine]", "values": [
      {"measurement": "effect on yield and plaque size of wild-type WSN-UdM virus", "setting": "[1]", "result": "markedly reduced"},
      {"measurement": "concentrations at which the drug selectively inhibits viral replication", "setting": "[2]; cell culture (Appleyard, 1977)", "result": "0.1 to 5", "unit": "µM"},
      {"measurement": "concentrations of nonspecific action (increase in pH of endosomes)", "setting": "[2]; cell culture (Daniels et al., 1985)", "result": "> 50", "unit": "μM"}
    ]}
  ]
}
